Assay results published in the supplement of paper PMC11451515.

System: NOMO1
Assay: cell viability relative to DMSO control; higher = less cytotoxic
Conditions: 48 h
Outline: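 Library compounds in DMSO were pin-dosed in an 11-point threefold series (47 μM to 0.79 nM) onto leukemia cells in 1536-well plates (5 μl). Plates held 500 cells/well of NOMO1 or SEM or 1000 cells/well of P12-Ichikawa, each adapted for at least four passages in each medium. Luminescence was read with CellTiter-Glo One after 48 h at 37°C. Viability means the per-plate percentage relative to DMSO wells, using cell-free wells as background.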

[1] = HPLM + 10% dialyzed FBS, 0.000781 µM
[2] = HPLM + 10% dialyzed FBS, 0.00234 µM
[3] = HPLM + 10% dialyzed FBS, 0.00702 µM
[4] = HPLM + 10% dialyzed FBS, 0.0211 µM
[5] = HPLM + 10% dialyzed FBS, 0.0632 µM
[6] = HPLM + 10% dialyzed FBS, 0.19 µM
[7] = HPLM + 10% dialyzed FBS, 0.569 µM
[8] = HPLM + 10% dialyzed FBS, 1.71 µM
[9] = HPLM + 10% dialyzed FBS, 5.12 µM
[10] = HPLM + 10% dialyzed FBS, 15.4 µM
[11] = HPLM + 10% dialyzed FBS, 46.1 µM
[12] = RPMI 5 mM glucose + 10% FBS, 0.000781 µM
[13] = RPMI 5 mM glucose + 10% FBS, 0.00234 µM
[14] = RPMI 5 mM glucose + 10% FBS, 0.00702 µM
[15] = RPMI 5 mM glucose + 10% FBS, 0.0211 µM
[16] = RPMI 5 mM glucose + 10% FBS, 0.0632 µM
[17] = RPMI 5 mM glucose + 10% FBS, 0.19 µM
[18] = RPMI 5 mM glucose + 10% FBS, 0.569 µM
[19] = RPMI 5 mM glucose + 10% FBS, 1.71 µM
[20] = RPMI 5 mM glucose + 10% FBS, 5.12 µM
[21] = RPMI 5 mM glucose + 10% FBS, 15.4 µM
[22] = RPMI 5 mM glucose + 10% FBS, 46.1 µM
[23] = RPMI 5 mM glucose + 10% dialyzed FBS, 0.000781 µM
[24] = RPMI 5 mM glucose + 10% dialyzed FBS, 0.00234 µM
[25] = RPMI 5 mM glucose + 10% dialyzed FBS, 0.00702 µM
[26] = RPMI 5 mM glucose + 10% dialyzed FBS, 0.0211 µM
[27] = RPMI 5 mM glucose + 10% dialyzed FBS, 0.0632 µM
[28] = RPMI 5 mM glucose + 10% dialyzed FBS, 0.19 µM
[29] = RPMI 5 mM glucose + 10% dialyzed FBS, 0.569 µM
[30] = RPMI 5 mM glucose + 10% dialyzed FBS, 1.71 µM
[31] = RPMI 5 mM glucose + 10% dialyzed FBS, 5.12 µM
[32] = RPMI 5 mM glucose + 10% dialyzed FBS, 15.4 µM
[33] = RPMI 5 mM glucose + 10% dialyzed FBS, 46.1 µM

Row | Compound | cell viability [1] | cell viability [2] | cell viability [3] | cell viability [4] | cell viability [5] | cell viability [6] | cell viability [7] | cell viability [8] | cell viability [9] | cell viability [10] | cell viability [11] | cell viability [12] | cell viability [13] | cell viability [14] | cell viability [15] | cell viability [16] | cell viability [17] | cell viability [18] | cell viability [19] | cell viability [20] | cell viability [21] | cell viability [22] | cell viability [23] | cell viability [24] | cell viability [25] | cell viability [26] | cell viability [27] | cell viability [28] | cell viability [29] | cell viability [30] | cell viability [31] | cell viability [32] | cell viability [33]
1 | CC(O)(C[S+](=O)([O-])c1ccc(F)cc1)C(=O)Nc1ccc(C#N)c(C(F)(F)F)c1 (stereo unspecified) | 84.9% | 85.7% | 98.6% | 92.6% | 96.8% | 97% | 112% | 94.2% | 94.8% | 87.5% | 48% | 86.5% | 93.4% | 96.5% | 93.3% | 85.5% | 85.8% | 91.6% | 93.3% | 92.3% | 86.1% | 50.7% | 75.9% | 91.7% | 101% | 95.3% | 107% | 109% | 105% | 82.5% | 86.6% | 79.4% | 57%
2 | N#CC1(c2cccc(C(=O)Nc3cc(Oc4ccc5nc(NC(=O)C6CC6)sc5n4)ccc3F)c2Cl)CC1 | 105% | 121% | 114% | 113% | 119% | 93.8% | 91% | 56.6% | 39.2% | 18.2% | 18.2% | 115% | 113% | 107% | 100% | 103% | 105% | 104% | 76.7% | 48.8% | 10.7% | 10.6% | 118% | 123% | 96.5% | 98.2% | 98.7% | 90.6% | 72.9% | 70.1% | 53.9% | 16.9% | 15.6%
3 | CC(C)[C@H]1C(=O)N[C@H](CO)Cc2c[nH]c3cccc(c23)N1C | 104% | 98.3% | 106% | 111% | 125% | 128% | 112% | 75.8% | 50.6% | 47.2% | 45% | 96.2% | 103% | 112% | 104% | 111% | 119% | 99.7% | 77.7% | 67.9% | 51.1% | 46.7% | 81.7% | 94.4% | 93.2% | 93.2% | 97.5% | 120% | 100% | 69.5% | 71.1% | 56% | 47.4%
4 | Nc1nccc(-c2ccc3noc(-c4ccc(Cl)cc4)c3c2)n1 | – | – | – | – | – | – | – | – | – | – | – | 101% | 117% | 103% | 127% | 102% | 111% | 115% | 107% | 108% | 101% | 104% | 121% | 115% | 115% | 120% | 122% | 110% | 127% | 106% | 118% | 116% | 113%
